Assay: molar heat capacity at constant pressure
Details: 101.33 kPa, Crystal

O=C(O)c1cccc(C(=O)O)n1 [pyridine-2,6-dicarboxylic acid]
Details | molar heat capacity at constant pressure [J/K/mol]
84.05 K | 56.42
86.4 K | 56.44
88.71 K | 56.5
90.97 K | 56.59
93.19 K | 56.71
95.37 K | 56.85
97.51 K | 57.03
99.63 K | 57.23
101.72 K | 57.46
103.77 K | 57.71
105.81 K | 57.98
107.81 K | 58.27
109.8 K | 58.59
111.76 K | 58.92
113.7 K | 59.27
115.63 K | 59.65
117.53 K | 60.03
119.42 K | 60.44
121.29 K | 60.86
123.15 K | 61.3
124.99 K | 61.76
126.82 K | 62.23
128.63 K | 62.72
130.43 K | 63.22
132.22 K | 63.73
133.99 K | 64.25
135.76 K | 64.8
137.51 K | 65.35
139.25 K | 65.91
140.98 K | 66.49
142.69 K | 67.08
144.4 K | 67.68
146.1 K | 68.29
147.79 K | 68.91
149.46 K | 69.55
151.13 K | 70.19
152.79 K | 70.84
154.44 K | 71.5
156.08 K | 72.18
157.72 K | 72.86
159.35 K | 73.55
160.97 K | 74.25
162.58 K | 74.96
164.18 K | 75.68
165.77 K | 76.4
167.35 K | 77.13
168.92 K | 77.86
170.49 K | 78.61
172.04 K | 79.36
173.59 K | 80.11
175.13 K | 80.88
176.66 K | 81.65
178.19 K | 82.42
179.71 K | 83.2
181.22 K | 83.99
182.72 K | 84.78
184.23 K | 85.59
185.73 K | 86.39
187.22 K | 87.21
188.71 K | 88.03
190.19 K | 88.85
191.66 K | 89.68
193.13 K | 90.52
194.59 K | 91.35
196.06 K | 92.2
197.5 K | 93.04
200.08 K | 94.57
204.09 K | 96.99
207.23 K | 98.92
209.37 K | 100.26
211.49 K | 101.59
213.62 K | 102.95
217.8 K | 105.66
219.85 K | 107.01
221.9 K | 108.37
223.94 K | 109.74
225.95 K | 111.1
227.91 K | 112.43
229.9 K | 113.8
231.78 K | 115.1
233.73 K | 116.46
235.64 K | 117.81
237.61 K | 119.2
239.52 K | 120.56
241.4 K | 121.91
243.27 K | 123.26
245.17 K | 124.63
247.09 K | 126.04
248.98 K | 127.43
250.89 K | 128.84
252.77 K | 130.24
254.65 K | 131.65
256.51 K | 133.04
258.38 K | 134.45
260.23 K | 135.86
262.08 K | 137.27
263.92 K | 138.68
265.74 K | 140.08
267.58 K | 141.5
269.4 K | 142.91
271.2 K | 144.31
273 K | 145.72
274.79 K | 147.12
276.55 K | 148.51
278.32 K | 149.91
280.09 K | 151.31
281.85 K | 152.71
283.59 K | 154.09
285.32 K | 155.48
287.04 K | 156.85
288.74 K | 158.22
290.44 K | 159.59
292.1 K | 160.93
293.75 K | 162.27
295.39 K | 163.6
297.06 K | 164.95
298.72 K | 166.31
300.37 K | 167.65
302.01 K | 168.99
303.64 K | 170.32
305.27 K | 171.65
306.88 K | 172.98
310.09 K | 175.62
311.68 K | 176.93
313.25 K | 178.21
314.76 K | 179.47
316.65 K | 181.03
319.26 K | 183.18
322.04 K | 185.48
324.78 K | 187.75
327.48 K | 189.98
330.16 K | 192.2
332.81 K | 194.4
335.45 K | 196.59
338.09 K | 198.77
340.74 K | 200.97
343.44 K | 203.2
346.14 K | 205.43
348.74 K | 207.58
351.31 K | 209.7
353.85 K | 211.78
356.38 K | 213.86
358.86 K | 215.9
361.34 K | 217.92
363.79 K | 219.91
366.21 K | 221.88
368.6 K | 223.82
370.97 K | 225.73
375.64 K | 229.5
378 K | 231.38
